Laboratory results reported in ChEMBL document CHEMBL3885881, “DrugMatrix”.

Species: Rattus norvegicus
Assay: DrugMatrix - Regimen: Daily Repeat
Format: toxicity, organism-based, Sprague-Dawley
Parameters: regimen Daily Repeat, gender Male, age 6-8 weeks
Conditions: in vivo, po, route oral GAVAGE, vehicle .5 % CMC; for BASOPHIL / EOSINOPHIL / ERYTHROCYTE COUNT / HEMATOCRIT / HEMOGLOBIN / LEUKOCYTE COUNT / LYMPHOCYTE / MEAN CORPUSCULAR HEMOGLOBIN / MEAN CORPUSCULAR HEMOGLOBIN CONCENTRATION / MEAN CORPUSCULAR VOLUME / MONOCYTE / NEUTROPHIL / PLATELET COUNT: tissue Blood; for ALANINE AMINOTRANSFERASE / ALBUMIN / ALKALINE PHOSPHATASE / ASPARTATE AMINOTRANSFERASE / BLOOD UREA NITROGEN / CARBON DIOXIDE / CHLORIDE / CHOLESTEROL / CREATINE PHOSPHOKINASE / CREATININE / GLUCOSE / LACTATE DEHYDROGENASE / LIPASE / PHOSPHORUS / POTASSIUM / SODIUM / TOTAL BILIRUBIN / TOTAL PROTEIN / URIC ACID: tissue Plasma
[1] = 0 mg/kg, 72 h, dose level Control, time 3 day
[2] = 0 mg/kg, 120 h, dose level Control, time 5 day
[3] = 1200 mg/kg, 72 h, dose level High, time 3 day
[4] = 1200 mg/kg, 120 h, dose level High, time 5 day

## CCCCC1=NC2(CCCC2)C(=O)N1Cc1ccc(-c2ccccc2-c2nnn[nH]2)cc1 [IRBESARTAN]
[1]
  BASOPHIL: 0.17%
  EOSINOPHIL: 0.83%
  ERYTHROCYTE COUNT: 7.2 x10E6/uL
  HEMATOCRIT: 43.13%
  HEMOGLOBIN: 14.63 G/DL
  LEUKOCYTE COUNT: 9.05 x10E3/uL
  LYMPHOCYTE: 75.17%
  MEAN CORPUSCULAR HEMOGLOBIN: 20.35 pg
  MEAN CORPUSCULAR HEMOGLOBIN CONCENTRATION: 33.95 G/DL
  MEAN CORPUSCULAR VOLUME: 59.93 fL
  MONOCYTE: 2.83%
  NEUTROPHIL: 21.17%
  PLATELET COUNT: 1093.17 x10E3/uL
  ALANINE AMINOTRANSFERASE: 49.17 u/L
  ALBUMIN: 4.33 G/DL
  ALKALINE PHOSPHATASE: 366.5 u/L
  ASPARTATE AMINOTRANSFERASE: 86.33 u/L
  BLOOD UREA NITROGEN: 17 mg/dL
  CARBON DIOXIDE: 24.17 mmol/L
  CHLORIDE: 102.83 MEQ/L
  CHOLESTEROL: 78.33 mg/dL
  CREATINE PHOSPHOKINASE: 320.83 u/L
  CREATININE: 0.3 mg/dL
  GLUCOSE: 140.83 mg/dL
  LACTATE DEHYDROGENASE: 210 u/L
  LIPASE: 9.33 u/L
  PHOSPHORUS: 9.12 mg/dL
  POTASSIUM: 5.65 MEQ/L
  SODIUM: 144.17 MEQ/L
  TOTAL BILIRUBIN: 0.1 mg/dL
  TOTAL PROTEIN: 6.3 G/DL
  URIC ACID: 1.03 mg/dL
[2]
  BASOPHIL: 0.17%
  EOSINOPHIL: 1%
  ERYTHROCYTE COUNT: 7.02 x10E6/uL
  HEMATOCRIT: 43.12%
  HEMOGLOBIN: 14.18 G/DL
  LEUKOCYTE COUNT: 9.63 x10E3/uL
  LYMPHOCYTE: 72%
  MEAN CORPUSCULAR HEMOGLOBIN: 20.25 pg
  MEAN CORPUSCULAR HEMOGLOBIN CONCENTRATION: 32.95 G/DL
  MEAN CORPUSCULAR VOLUME: 61.43 fL
  MONOCYTE: 2.67%
  NEUTROPHIL: 24.5%
  PLATELET COUNT: 1028.5 x10E3/uL
  ALANINE AMINOTRANSFERASE: 42.5 u/L
  ALBUMIN: 4.2 G/DL
  ALKALINE PHOSPHATASE: 300.33 u/L
  ASPARTATE AMINOTRANSFERASE: 87.67 u/L
  BLOOD UREA NITROGEN: 17 mg/dL
  CARBON DIOXIDE: 24.33 mmol/L
  CHLORIDE: 99 MEQ/L
  CHOLESTEROL: 70.67 mg/dL
  CREATINE PHOSPHOKINASE: 891.33 u/L
  CREATININE: 0.3 mg/dL
  GLUCOSE: 139.67 mg/dL
  LACTATE DEHYDROGENASE: 289.83 u/L
  LIPASE: 8.83 u/L
  PHOSPHORUS: 9.5 mg/dL
  POTASSIUM: 5.55 MEQ/L
  SODIUM: 139 MEQ/L
  TOTAL BILIRUBIN: 0.0833 mg/dL
  TOTAL PROTEIN: 6.1 G/DL
  URIC ACID: 0.98 mg/dL
[3]
  BASOPHIL: 0.33%
  EOSINOPHIL: 1%
  ERYTHROCYTE COUNT: 7.31 x10E6/uL
  HEMATOCRIT: 43.7%
  HEMOGLOBIN: 14.73 G/DL
  LEUKOCYTE COUNT: 11.5 x10E3/uL
  LYMPHOCYTE: 81.67%
  MEAN CORPUSCULAR HEMOGLOBIN: 20.17 pg
  MEAN CORPUSCULAR HEMOGLOBIN CONCENTRATION: 33.73 G/DL
  MEAN CORPUSCULAR VOLUME: 59.8 fL
  MONOCYTE: 2%
  NEUTROPHIL: 14.67%
  PLATELET COUNT: 1173.33 x10E3/uL
  ALANINE AMINOTRANSFERASE: 46 u/L
  ALBUMIN: 4.67 G/DL
  ALKALINE PHOSPHATASE: 305.33 u/L
  ASPARTATE AMINOTRANSFERASE: 75 u/L
  BLOOD UREA NITROGEN: 17.67 mg/dL
  CARBON DIOXIDE: 28.33 mmol/L
  CHLORIDE: 103.33 MEQ/L
  CHOLESTEROL: 73 mg/dL
  CREATINE PHOSPHOKINASE: 219 u/L
  CREATININE: 0.3 mg/dL
  GLUCOSE: 133.33 mg/dL
  LACTATE DEHYDROGENASE: 300.67 u/L
  LIPASE: 9.33 u/L
  PHOSPHORUS: 9.03 mg/dL
  POTASSIUM: 5.67 MEQ/L
  SODIUM: 146 MEQ/L
  TOTAL BILIRUBIN: 0.1 mg/dL
  TOTAL PROTEIN: 6.67 G/DL
  URIC ACID: 1.23 mg/dL
[4]
  BASOPHIL: 0.33%
  EOSINOPHIL: 1%
  ERYTHROCYTE COUNT: 7.01 x10E6/uL
  HEMATOCRIT: 42.37%
  HEMOGLOBIN: 14.23 G/DL
  LEUKOCYTE COUNT: 11.4 x10E3/uL
  LYMPHOCYTE: 79.67%
  MEAN CORPUSCULAR HEMOGLOBIN: 20.33 pg
  MEAN CORPUSCULAR HEMOGLOBIN CONCENTRATION: 33.57 G/DL
  MEAN CORPUSCULAR VOLUME: 60.47 fL
  MONOCYTE: 2%
  NEUTROPHIL: 17.33%
  PLATELET COUNT: 1226.33 x10E3/uL
  ALANINE AMINOTRANSFERASE: 44.67 u/L
  ALBUMIN: 4.23 G/DL
  ALKALINE PHOSPHATASE: 299.5 u/L
  ASPARTATE AMINOTRANSFERASE: 74.33 u/L
  BLOOD UREA NITROGEN: 18.67 mg/dL
  CARBON DIOXIDE: 20 mmol/L
  CHLORIDE: 98.33 MEQ/L
  CHOLESTEROL: 74 mg/dL
  CREATINE PHOSPHOKINASE: 216.33 u/L
  CREATININE: 0.27 mg/dL
  GLUCOSE: 136 mg/dL
  LACTATE DEHYDROGENASE: 197.33 u/L
  LIPASE: 8.67 u/L
  PHOSPHORUS: 7.83 mg/dL
  POTASSIUM: 5.6 MEQ/L
  SODIUM: 138 MEQ/L
  TOTAL BILIRUBIN: 0.1 mg/dL
  TOTAL PROTEIN: 6.17 G/DL
  URIC ACID: 0.93 mg/dL
